89 molecules from a melting point compilation (Tetko et al.; mined from patent text by program, amines drawn as free bases though some values may be those of a salt) can be followed below.

Molecules are shown by their SMILES. Where only a bound is given, the exact number is not on record here.

The molecule `COC(=O)CCC(=O)c1cccc(O)c1` yielded a melting point of 102 to 103 °C. For the molecule `N#Cc1cnn(-c2ccc(Cl)cc2Cl)c1NN`, the melting point fell in the range of 199 to 204 °C. Turning to `CCCOc1c(-c2cc(C=CC(=O)O)ccc2O)cc(C(C)(C)C)cc1C(C)(C)C`, the melting point was 104 to 106 °C. Regarding `CC1CCN(CCOc2ccc(NC(=O)CC(=O)c3ccc(-c4ccccc4)cc3)cc2Cl)CC1`, the melting point is 135 to 139 °C. Molecule `CCOC(=O)Oc1cccc(OC)c1Cl` showed a melting point of 75 to 76 °C. `O=c1c2cc(Br)ccc2nc(C(S)c2ncnc3[nH]cnc23)n1-c1ccccc1Cl` (centres undefined) returned a melting point of 212 to 242 °C.

Turning to `CC1C(=O)C2CC(=O)N2C1C(=O)OC(c1ccccc1)c1ccccc1` (centres undefined), the melting point lay in the range of 132 to 133 °C. To `CC1(C)C(C=NOCC2CC2)C1C(=O)O` (centres undefined) belongs 82 to 85 °C; to `COC(=O)C1Cc2c([nH]c3ccccc23)CN1C(=O)c1ccc(Cl)cc1` (centres undefined), 243 to 244 °C; to `Cc1ccn2nc(S(=O)(=O)Nc3c(Cl)cccc3Cl)nc2n1`, 126 to 129 °C.

Molecule `O=C(CN(CCOCc1ccccc1)Cc1ccccc1)Nc1ccc2c3c(nn2CCN(CCOCc2ccccc2)Cc2ccccc2)-c2cc(O)ccc2Oc13` yielded a melting point of 106 to 110 °C. To `Cc1cc(I)ccc1-n1c(C(F)(F)F)nn(C)c1=S` belongs 104 to 107 °C; to `OC1(O)C(F)(F)CCCC1(Cl)Cl`, 30 °C. In the case of `CN1C(=O)CN(C(=O)Cl)C(c2ccccc2)c2cc(Cl)ccc21` (single isomer, unassigned; (-)), the melting point fell in the range of 201 to 204 °C. On to `CCCCCCCCN(O)C(=O)N(C)C`, for which the melting point lay within 29 to 30 °C. As for `NC(=O)c1cc([N+](=O)[O-])cc([N+](=O)[O-])c1Cl`, the melting point was in the range of 181 to 183 °C. With `O=[N+]([O-])c1ccc2c(c1)C(O)c1cccnc1CC2` (centres undefined), the melting point is 222 to 223 °C.

In turn, `COC(=O)c1cc(-c2ccc3c(c2)CCO3)n[nH]c1=O` returned a melting point of 192 to 200 °C. As to `CCCC1(C(=O)NCCN2CCC(N3Cc4ccccc4C3=O)CC2)c2ccccc2-c2ccccc21`, the melting point fell in the range of 219 to 221 °C.

With `CC(C)(CC(=O)O)SC(CCCc1ccccc1)c1ccc(OCc2ccc3ccccc3n2)cc1` (centres undefined), the melting point was in the range of 90 to 92 °C. To `N#Cc1ccc(NS(=O)(=O)c2ccc([N+](=O)[O-])cc2[N+](=O)[O-])cc1` belongs 186 to 187 °C; to `COc1cc(CBr)cc(OC)c1`, 70 to 72 °C; to `CCCCc1ccc(NC(=O)NOCc2ccccc2)cc1`, 90.6 to 91.4 °C. Then `COc1ccc(-n2nc3c(cc2=O)CCCc2sc(CO)cc2-3)cc1`, with 130 to 131 °C; and `N#Cc1ccc(-c2ccc3c(c2)C2(CCCCC2)C(=O)N3)cc1F`, with 258 to 260 °C. For `COCc1nc2c(OC)ccc(C(=O)Nc3c(Cl)cncc3Cl)c2[nH]1`, the melting point fell in the range of 230 to 231 °C. `O=S(=O)(NCCSc1cc(F)c(OCCO)c(F)c1)c1ccc(Cl)cc1` had a melting point of 43.5 to 45 °C. In the case of `CCOC(=O)c1ncc2[nH]c3ccc(S(=O)(=O)N(C)C)cc3c2c1COC`, the melting point lay within 191 to 193 °C.

`CC(C)(C)c1cc(C(=O)Nc2cccnc2NC(=O)NC23CC4CC(CC(C4)C2)C3)cc(C(C)(C)C)c1O` had a melting point of 198 to 202 °C.

The molecule `O=C1CCC(O)=C1Cc1ccc2ccccc2c1` came in with a melting point of 230 to 231 °C.

The molecule `CC(C)CC(=O)N1CCC(c2nc3cc(-c4ccc(C(N)=O)c(F)c4)ccc3o2)CC1` registered a melting point of 186 to 190 °C. Then `COC[C@@H](NC(C)=O)C(=O)NCc1ccc(N=[N+]=[N-])cc1`, with 149 to 150 °C; and `CC(C)(C)OC(=O)N1C2CCC(C2)N1CC(O)C(Cc1ccccc1)NC(=O)OCc1ccccc1` (mixture of isomers), with 119 to 126 °C. Then `CC(C)C(C#N)NC(=O)c1snc(Cl)c1Cl` (centres undefined), with 120 to 121 °C; and `Cc1cc(S(=O)(=O)NC2CCCCC2)c2c(C)ccc(C(C)C)cc1-2`, with 108 to 109 °C; and `Cc1ccc(CNC(=O)c2cc(Cl)cc3cc(C)oc23)cc1`, with 130 to 132 °C.

The molecule `COc1ccc(-c2c(C(C)=O)c(C)nc3cc(OC)c(OC)cc23)cc1OC` registered a melting point of 210 to 211 °C. In the case of `O=C(O)c1ccccc1Nc1cccc(/C=C/c2nc3ccccc3s2)c1`, the melting point lay within 146 to 150 °C. `CC(C)(C)C(=N)Nc1ccccc1N1CCOCC1` registered a melting point of 126 °C. As to `CC(C(=O)NCc1cccs1)(c1ccccc1)c1ccccc1`, the melting point was 90 to 91 °C.

In turn, `Cc1cccc(-c2[nH]c(C(C)C)nc2-c2cccc(-c3ccc(NS(=O)(=O)C4CC4)cc3F)c2)n1` had a melting point of 124 to 128 °C. Regarding `COC(=O)c1cc2c([nH]c3ccc(Br)cc32)s1`, the melting point lay within 216 to 218 °C. Consider `C=C(Oc1cc(-n2c(=O)cc(C(F)(F)F)n(N)c2=O)c(F)cc1Cl)C(=O)OC`, for which the melting point came out at 66 °C. Then `COc1cc(O)cc(Cl)c1`, with 94 to 96 °C; and `Cc1c(Cc2ccc(C(C)C)cc2)c2c(c(C)c1NC(=O)CC(C)(C)C)C(N(C)C)C(C)(C)O2` (centres undefined), with 138 to 139 °C. The molecule `CN1Cc2c(C(=O)OC3CCCC3)ncn2-c2cccc(Cl)c2C1=O` registered a melting point of 162 to 163 °C.

Consider `CCC(=O)c1cc([C@]2(c3cccc(-c4cccnc4F)c3)N=C(N)N(C)C2=O)cn1CC`, for which the melting point fell in the range of 94 to 97 °C.

Turning to `CCNC(=O)c1ccc(Oc2c(C)n(CC(=O)O)c3ccc(F)cc23)cc1`, the melting point fell in the range of 220 to 222 °C.

In turn, `O=C1OCc2c1cc1ccc3c(c1c2-c1ccc(Cl)cc1)OCO3` displayed a melting point of 225 to 227 °C. As for `CCCCCCC(=N)NC(=S)Nc1ccc(SC)cc1`, the melting point was in the range of 100 to 101 °C. On to `CCc1nc2c(N)nc3ccccc3c2n1CCCC#Cc1ccccn1`, for which the melting point lay within 188 to 192 °C. With `CC(Nc1ccc(Cl)c(Cl)c1)C(=O)NCC#N` (centres undefined), the melting point fell in the range of 134 to 135 °C. In turn, `O=C(N[C@H](Cc1ccc(C(F)(F)F)cc1)[C@@H](O)c1cccc2ccccc12)c1ccc(F)cc1` (racemic) came in with a melting point of 194 to 195 °C.

On to `CC(C(=O)O)c1ccc2oc(Nc3ccc(Cl)cc3)nc2c1` (centres undefined), for which the melting point is 206 to 208 °C. In the case of `N#Cc1cc(-c2ccc3c(c2)C2(CCCC2)C(=O)N3)ccc1F`, the melting point is 264 to 266 °C. `CS(=O)(=O)OCC1CCN(C(=O)c2ccccc2)CC1` registered a melting point of 87 to 90 °C. The molecule `CC(=O)OC1CC2=CC(=O)C3C4CCCC4(C)CCC3C2(C)C(OC(C)=O)C1` (centres undefined) displayed a melting point of 220 to 221 °C. `CCCCc1noc(-c2ccccc2)c1-c1ccc(S(N)(=O)=O)cc1` displayed a melting point of 150 °C. Regarding `CC1(C)C(=O)c2c(cc(O)c(Cl)c2Cl)C1c1ccccc1` (centres undefined), the melting point fell in the range of 259 to 262 °C. For `C=CCNC(=S)N1CCc2[nH]cnc2C1`, the melting point was 172 °C. To `CC1=C(C(=O)O)C(C)(C)CCC1=O` belongs 181 to 183 °C; to `CCOC(=O)C1CC1c1cc(=O)c2ccc3ccccc3c2o1` (centres undefined), 106 °C. `CCOC(=O)Nc1cc(I)c(NS(C)(=O)=O)cc1OC` had a melting point of 153 to 155 °C. Consider `O=C1CC(c2cccc(-n3ccnc3)c2)=Nc2ccc(-c3cccc(F)c3)cc2N1`, for which the melting point lay within 200 to 201 °C.

On to `CN(C)C=NC(=N[N+](=O)[O-])N(C)Cc1ccc(Cl)nc1`, for which the melting point lay within 85 to 89 °C. Take `Cc1cccc(SCn2cc(Cl)cnc2=O)c1`: the melting point amounted to 134 °C. Molecule `CNC(=O)COC1C(O)C(CO)OC(Oc2ccc(N)cc2)C1O` (centres undefined) gave a melting point of 239 °C. As to `COC(=O)c1ccc(N)c(C(=O)OC)c1`, the melting point was 127 to 130 °C. Then `CC1(C)CCSc2c(CC#Cc3ccc(O)cc3)cccc21`, with 95 °C; and `COC(=O)COc1nsc2nc(C)cc(C)c12`, with 89 to 91 °C. As for `CCCOc1ccc(S(=O)(=O)N2CCN(C)CC2)cc1-c1nc2cc(Cl)c([N+](=O)[O-])cc2c(=O)[nH]1`, the melting point lay in the range of 225 to 228 °C.

Molecule `CC(C)(CNc1ccnc2cc(Cl)ccc12)NCc1cc(C(F)(F)F)cc(C(F)(F)F)c1` yielded a melting point of 140 to 141 °C. Consider `FC(F)(F)c1nc2cnc3ccccc3c2s1`, for which the melting point fell in the range of 113 to 114 °C. For `CCn1c(=O)c2nc(-c3ccc(/C=C/C(=O)O)cc3)[nH]c2n(C)c1=O`, the melting point is > 300 °C.

In the case of `C[C@]1(CN2CCC(Nc3ccc(OC(F)(F)F)cc3)CC2)Cn2cc([N+](=O)[O-])nc2O1`, the melting point was 108 to 109 °C. As for `CS(=O)(=O)Nc1ccc2[nH]ccc2c1`, the melting point fell in the range of 133 to 135 °C. Turning to `CCc1cccc2c(S(=O)(=O)c3ccc(C)cc3)cnnc12`, the melting point is 133 to 134 °C. In turn, `O=Cc1ccc(-c2cccc(-c3ccnc4c(C(=O)c5cccs5)cnn34)c2)cc1` yielded a melting point of 156 to 158 °C. As to `COc1cccc(C(CNC(=O)Cc2c(Cl)cncc2Cl)C(C)C)c1` (centres undefined), the melting point was 94 to 95 °C. Then `CC(=Cc1ccccc1)c1cc2c(cc1Cl)C(C)(C)CCC2(C)C`, with 114 °C. To `Cc1c(Nc2c(C#N)cnc3sc(-c4cccc(CN(C)C)c4)cc23)ccc2[nH]ccc12` belongs 227 to 229 °C. On to `Cc1nc(-c2ccc(C(=O)O)cc2)sc1C(=O)O`, for which the melting point is > 300 °C. `CC(C)(CC(N)=O)c1ccc2c(c1)OCO2` came in with a melting point of 70 to 71.5 °C. To `O=[N+]([O-])c1ccc(Oc2ccc(S(=O)(=O)NC3CCCCC3)cc2)cc1` belongs 94 °C; to `N=C(Nc1ccc(CNCc2ccccc2)cc1)c1cccs1`, 73 to 74 °C; to `CCC(O)CN1CCN(C2Cc3ccc(F)cc3Sc3ccc(N)cc32)CC1` (centres undefined), 184 to 186 °C. Regarding `CC(C)(C)OC(=O)N(CCOc1cccc2[nH]cc(Cl)c12)Cc1ccccc1`, the melting point was in the range of 106 to 108 °C.

`COC(=O)c1ccc(Cn2nnc3ccc(NC(=O)OC4CCCC4)cc32)c(OC)c1` had a melting point of 142 to 143 °C. In the case of `Cc1cc(=O)n(-c2cc3c(cc2F)sc(=O)n3CC(N)=O)c(=O)n1C`, the melting point was > 260 °C.

The term melting point denotes the temperature, or range, at which the solid turns liquid.
